Measured values taken from patent US20230338340A1, “Methods of Treating Cystic Fibrosis” (The Trustees of Dartmouth College, priority 2020, published 2023).
Non-standard residues stand in square brackets, D forms with d. Residues, ends and D or L forms follow the SMILES beside them. Tle = CC(C)(C)[C@H](N)C(=O)O

Legend:
Assay type in all cases: binding
CAL PDZ = target: T1, CAL PDZ (Homo sapiens, UniProt Q9HD26); experiment: CALP fluorescence polarization (FP) competition assay, HTS format with dose-response validation; design: Inhibitory activity CALP at 100 μM: unit not given here; conditions: for IC50: read-out: Inhibitory activity CALP IC50
T1 construct: Recombinant CAL PDZ was expressed and purified in E. coli as previously described; made in house; host or cells: E. coli
Procedure: (§1) CALP and/or Dab2 inhibition assays were performed in biochemical “mix-and-measure” format in order to evaluate the effects on activation and inhibition of CALP and/or Dab2 by the compounds of the disclosure. Brief assay procedure is provided below. Unless otherwise specified, all of the compounds were obtained from commercial sources.
CALP inhibitors were identified by fluorescence polarization (FP) competition assays in high-throughput screening (HTS) format. Recombinant CAL PDZ was expressed and purified in E. coli as previously described (Amacher et al., Acta Cyst. (2011) F67, 600-603), and dialyzed into FP storage buffer (25 mM Tris pH 8.5, 150 mM NaCl, 0.1 mM TCEP, and 0.02% sodium azide). A fluorescent reporter peptide, NPG32, was purchased commercially with the following sequence: F*-[…] (F* denotes a N-terminal fluorescein group coupled via an aminohexanoic acid linker). Initial single-dose HTS was performed with libraries comprising ˜52,000 compounds (FAST Lab—Novartis Institutes for BioMedical Research). First, 25 nL of 5 mM small-molecule was transferred to 1536-well Grenier plates. 3 μL of 3.708 μM CALP in FP buffer (FP storage buffer supplemented with […]) was added, and plates were incubated for 10 min. Next, 3 μL of 60 nM NPG32 (in FP buffer) was added. Final reaction volumes were 6 μL and contained 1.854 μM CALP, 30 nM NPG32, and 20.83 μM small-molecule. […] Plates were incubated for 30 minutes at room temperature and anisotropy was measured (480 nm excitation wavelength and 535 nm emission wavelength). […] Compounds were validated in triplicate using 8-point dilution series in half-log increments with two orthogonal assays: FRET and TMR-based FP assay. For the FRET assay, a cerulean-CALP fusion protein (Cer-CALP) was expressed and purified as previously described (Zhao et al., 2018). A fluorescent reporter peptide, PRC34, was purchased commercially with the following sequence: TMR*-[…] (TMR* denotes a N-terminal tetramethylrhodamine group coupled via an aminohexanoic acid linker). First, 40 nL of compound was transferred to the plates. 5 μL of 16.632 μM Cer-CALP was added, and plates were incubated for 30 min. Next, 5 μL of 16.632 μM PRC34 was added, and plates were incubated for 30 min. Final reaction volumes were 10 μL and contained 8.316 μM CALP, 8.316 μM […], and variable concentrations of small-molecule. Negative controls contained equivalent amounts of DMSO (0.4%), while positive controls contained 100 μM NPG30 (sequence: […]). Plates were incubated for 30 min, and emission at 475 nm and 575 nm was measured following excitation at 430 nm. TMR FP assays were conducted as described for the FITC-based assay with the following exceptions: TMR was used as the reporter peptide, the final CALP concentration was 11.952 μM, and the positive control used was 100 μM NPG30.

Human-Dab2-DH = target: T2, Human-Dab2-DH (Homo sapiens, UniProt P98082); experiment: Dab2 FP competition assay via HTS; conditions: read-out: Inhibitory activity Dab2 IC50
T2 construct: fused on or other part: N-terminal 10xHis tag with a 3C protease site, cleaved off unless otherwise indicated
T2 sequence (P98082 33-178 limits assumed): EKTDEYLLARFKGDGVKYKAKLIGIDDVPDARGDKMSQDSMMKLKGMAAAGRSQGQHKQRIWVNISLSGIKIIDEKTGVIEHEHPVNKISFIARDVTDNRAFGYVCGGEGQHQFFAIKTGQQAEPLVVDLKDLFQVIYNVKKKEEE
Procedure: as §1
Dab-2 inhibitors were also identified by FP competition assays via HTS. Human-Dab2-DH, residues 31-191 (Uniprot: P98082), and trDab2-DH (residues 33-178) was subcloned into the pET16b vector via PCR utilizing the restriction enzyme sites of Xhol and BamHI. The construct was designed with a 3C protease cleavage site directly upstream and in-frame with the protein coding sequence. DNA was sequence verified. (0.1 mM) IPTG was used to induce protein expression in E. coli BL21(DE3)RIL cells, after reaching an O.D. of […]. […] Followed by 3C cleavage of the 10×His tag (unless otherwise indicated), and a second nickel affinity column to remove the 3C protease and excess tag. Dab2-DH was dialyzed into FP storage buffer (25 mM Tris pH 8.0, 150 mM NaCl, 0.1 mM TCEP, and 0.02% sodium azide). Fluorescent reporter peptides, TIVR*STA02 (TMR*-[…]) and TMR*STA03 (TMR*-[…]), were purchased commercially with the following sequence where TMR* denotes a N-terminal tetramethylrhodamine group coupled via an aminohexanoic acid linker. An unlabled positive control peptide STA02 ([…]) was also purchased commercially. Inhibitors of Dab2-DH were identified from a variety of sources with various protocols outlined below.
For screens conducted at the Novartis Institutes for BioMedical Research FAST Lab, single-dose HTS assays were performed with libraries comprising ˜52,000 compounds at 20 μM doses. Experiments were conducted as described for screens at the University of Pittsburgh Lab and Drug Discovery Institute, except that Dab2-DH, not trDab2-DH, was used as the protein source.
For screens conducted at the Broad Institute, compound transfers were done using a 384-well pin tool equipped with 100 nL hydrophobic surface coated pins. 100 nL of DMSO (negative control), STA02 (positive control), or library compounds were dispensed into 20 μL of protein (200 nM) and reporter (F*-STA02, 30 nM) mixture with 0.1 mg/ml mouse IgG and 0.5 mM Thesit. Final concentrations in the mixture were DMSO ([…]), STA02 (20 μM), and compounds (18 μM). Plates were incubated for 35-45 minutes before measuring polarization. Compounds were tested in duplicates on two separate plates. Positive and negative controls were included in each individual plate.
For experiments conducted at the University of Pittsburgh Lab and Drug Discovery Institute, single-dose HTS assays were performed with a library containing ˜220,000 compounds. On the day of screening, a master mix of equal parts trDab2-DH (900 nM) and TMP-STA03 (90 nM) was prepared. Compound plates containing assay ready 2 μL aliquots of a 1 mM stock solution in DMSO were thawed, reconstituted in FP buffer to a concentration of 30 μM in 3% DMSO, and five μL transferred to low volume assay plates using a Perkin Elmer MDT. Ten μL of master mix were added by a Microflo bulk liquid dispenser (Biotek, Winooski, VT) and processed as described in the general protocol above. Each plate contained 32 wells of positive (Dab2-DH+probe+DMSO) and negative (Dab2-DH+probe +10 μM STA03) controls. Plates were read at 1.5-h and 4-h on the Envision multilabel reader.

CALP = target: T3, CALP (Homo sapiens, UniProt Q9HD26); experiment: Dose-dependent CALP inhibition by FP competition assay, large-volume format; conditions: one experimental replicate
T3 construct: Recombinant CAL PDZ was expressed and purified in E. coli as previously described; made in house; host or cells: E. coli
Procedure: The following compounds of Table 2 were obtained from commercial sources, and evaluated in fluorescence polarization (FP) competition assay.
Specifically, dose-dependent CALP inhibition of compounds of examples 36-41 was assessed by FP competition assays. Experiments were conducted similarly to HTS assays described above but in large-volume format. Briefly, CALP was expressed and purified as previously described (Amacher et al., 2011). A fluorescently labeled peptide, NPG32, was commercially obtained (sequence: F*-[…] where F* denotes a N-terminal fluorescein group coupled via an aminohexanoic acid linker). CALP was dialyzed into FP storage buffer (25 mM Tris pH 8.5, 150 mM NaCl, 0.1 mM TCEP, and 0.02% sodium azide). CALP was diluted into FP buffer (FP storage buffer supplemented with 0.1 mg/mL IgG and 30 μM thesit) containing 31.58 nM NPG32. The protein/reporter solution was aliquoted into 384-well plates with each well containing 19 μL of the mixture. Twelve-point titrations (2-fold serial dilutions) of the test compounds were prepared in 25% DMSO. To each well, 1 μL of compound was added. […] Plates were incubated at room temperature for 30 min before anisotropy was measured. […] Except for Examples 37-38, the reported potency for all compounds was calculated by averaging three experimental replicates.

## O=C(O[C@@H]1Cc2c(O)cc(O)cc2O[C@@H]1c1cc(=O)c(O)c2c(O)c(O)cc([C@H]3Oc4cc(O)cc(O)c4C[C@H]3O)c2c1)c1cc(O)c(O)c(O)c1 [Example 1, (2R,3R)-5,7-dihydroxy-2-(3,4,5-trihydroxy-6-oxo-1-((2R,3R)-3,5,7-trihydroxychroman-2-yl)-6H-benzo[7]annulen-8-yl)chroman-3-yl 3,4,5-trihydroxybenzoate]
CAL PDZ
  Inhibitory activity CALP at 100 μM: −65.53
  IC50: 11.3 µM
Human-Dab2-DH
  IC50: 2.45 µM

## CC1COC2C3=C(C(=O)C=CC3=O)C3OC(=O)C4CCC5C1CCC25C43 (stereo not drawn) [Example 2, 6-methyl-2a,2a^1,3,4,4a,5,6,7,8a,12b-decahydro-2H-4a^1,5-ethanofuro[4′,3′,2′:4,10]anthra[9,1-bc]oxepine-2,9,12-trione]
CAL PDZ
  Inhibitory activity CALP at 100 μM: −67.12
  IC50: 1.3 µM
Human-Dab2-DH
  IC50: 0.22 µM

## O=C1c2c(O)c(Cl)cc3c2[C@@]2(Oc4cc(Cl)c(O)c5c4[C@]3(O2)[C@@H]2O[C@@H]2C5=O)[C@@H]2O[C@H]12 [Example 3, (1aR,1bS,5aS,6aR,6bS,11aS)-3,9-dichloro-4,10-dihydroxy-1a,5a,6a,11a-tetrahydro-5H,11H-1b,6b-epoxyoxireno[2′,3′:2,3]naphtho[1,8-bc]oxireno[2′,3′:2,3]naphtho[1,8-ef]oxepine-5,11-dione]
CAL PDZ
  Inhibitory activity CALP at 100 μM: −80.85
  IC50: 25.3 µM
Human-Dab2-DH
  IC50: 0.26 µM

## Cc1c(O)c(O)c(O)c(C=O)c1C=O [Example 4, 3,4,5-trihydroxy-6-methylphthalaldehyde]
CAL PDZ
  Inhibitory activity CALP at 100 μM: −94.09
  IC50: 10.2 µM
Human-Dab2-DH
  IC50: 3.42 µM

## Oc1ccc(N2CCN(c3ncccn3)CC2)cc1 [Example 5, 4-(4-(pyrimidin-2-yl)piperazin-1-yl)phenol]
CAL PDZ
  Inhibitory activity CALP at 100 μM: −46.33
  IC50: 40.5 µM
Human-Dab2-DH
  IC50: 20.6 µM

## COc1cc(O)c2c(c1)oc(=O)c1c3cc(O)c(O)cc3oc21 [Example 7, 1,8,9-trihydroxy-3-methoxy-6H-benzofuro[3,2-c]chromen-6-one]
CAL PDZ
  Inhibitory activity CALP at 100 μM: −74.42
  IC50: 1.24 µM

## CC[C@@]1(O)C[C@H](O[C@H]2C[C@H](N(C)C)[C@H](O)[C@H](C)O2)c2c(cc3c(c2O)C(=O)c2c(O)ccc(O)c2C3=O)[C@H]1C(=O)OC [Example 14, methyl (1R,2R,4S)-4-(((2R,4S,5S,6S)-4-(dimethylamino)-5-hydroxy-6-methyltetrahydro-2H-pyran-2-yl)oxy)-2-ethyl-2,5,7,10-tetrahydroxy-6,11-dioxo-1,2,3,4,6,11-hexahydrotetracene-1-carboxylate]
CAL PDZ
  Inhibitory activity CALP at 100 μM: −67.06
  IC50: 0.73 µM

## C/C1=C/CC(O)/C=C\C(C)C(O)C(C)/C=C(\C)C(=O)c2c(O)c(C)cc3c2C(=O)C(Cl)=C(NC(=O)/C=C/C=C/C=C/C(C)C(O)CC1=O)C3=O (stereo not drawn) [Example 15, 2-chloro-13,19,23,28-tetrahydroxy-12,16,22,24,26,29-hexamethyl-13,14,19,22,23,24-hexahydro-1H-3,31-methanobenzo[e][1]azacyclononacosine-1,5,15,27,32(4H,12H,18H)-pentaone]
CAL PDZ
  Inhibitory activity CALP at 100 μM: −54.29
  IC50: 4.71 µM

## O=c1[nH]c2ccc(S(=O)(=O)Nc3cccc4ccccc34)cc2[nH]1 [Example 37, N-(naphthalen-1-yl)-2-oxo-2,3-dihydro-1H-benzo[d]imidazole-5-sulfonamide]
CALP
  CALP binding in FP competition: absence of binding

## O=c1[nH]c2ccc(S(=O)(=O)Nc3ccc(O)cc3)cc2[nH]1 [Example 38, N-(4-hydroxyphenyl)-2-oxo-2,3-dihydro-1H-benzo[d]imidazole-5-sulfonamide]
CALP
  CALP binding in FP competition: absence of binding

## CC(C)[C@H](NC(=O)[C@H](CCC(N)=O)NC(=O)[C@H](Cc1c[nH]c2ccccc12)NC(=O)[C@H](CCCNC(=N)N)NC(=O)[C@H](CO)NC(=O)[C@H](CC(N)=O)NC(=O)[C@H](C)N)C(=O)N[C@H](C(=O)N[C@@H](CCCNC(=N)N)C(=O)N[C@H](C(=O)O)C(C)(C)C)[C@@H](C)O [NPG35, reference compound] (H-ANSRWQVTR[Tle]-OH)
CAL PDZ; unlabeled peptide used as positive control
  Kd: ≤ 1 µM
